Experimental data from PubChem BioAssay AID308 (DTP/NCI, 2004).
Where “and” joins values, the source holds several entries; their conditions need not be identical. Equal values may be shown once. Inconclusive results and toxic doses are left out. Rule for the calls: active = survival T/C of 150% or more; inactive = T/C below 125% in these data.

Test system: BDF1 mice, L1210 6-MP/6-TG resistant leukemia ip, survival T/C
Test: NCI In Vivo Anticancer Drug Screen. Data for tumor model L1210 Leukemia resistant to 6-MP and 6-Thioguanine; NSC 755, NSC 752 (intraperitoneal) in B6D2F1 (BDF1) mice
Conditions: endpoint: mean survival time, higher = longer survival
Experimental: The antitumor activity of compounds was measured in mice bearing transplantable tumors. Survival or tumor size were measured and the results are expressed as the measurement made in the treated group (T) divided by the measurement made in the vehicle treated control group (C). The tumor model used in this assay is L1210 Leukemia resistant to 6-MP and 6-Thioguanine; NSC 755, NSC 752 (intraperitoneal) in B6D2F1 (BDF1) mice

[1] = dose: 20.0 mg/kg/injection, schedule: Q01DX Z (ip), vehicle: carboxymethylcellulose (CMC)
[2] = dose: 25.0 mg/kg/injection, schedule: Q01DX Z (ip), vehicle: carboxymethylcellulose (CMC)
[3] = dose: 100.0 mg/kg/injection, schedule: Q01DX Z (ip), vehicle: carboxymethylcellulose (CMC)
[4] = dose: 0.25 mg/kg/injection, schedule: Q01DX Z (ip), vehicle: saline
[5] = dose: 1.0 mg/kg/injection, schedule: Q01DX Z (ip), vehicle: saline

Measured: T/C

S=c1nc[nH]c2nc[nH]c12
inactive: dose: 3.5 mg/kg/injection, schedule: Q01DX Z (ip), vehicle: carboxymethylcellulose (CMC) 99 % of control | dose: 5.0 mg/kg/injection, schedule: Q01DX015 (ip), vehicle: carboxymethylcellulose (CMC) 93 % of control and 101 % of control | dose: 7.0 mg/kg/injection, schedule: Q01DX Z (ip), vehicle: carboxymethylcellulose (CMC) 100 % of control and 103 % of control and 106 % of control | dose: 8.0 mg/kg/injection, schedule: Q01DX015 (ip), vehicle: carboxymethylcellulose (CMC) 94 % of control and 97 % of control and 103 % of control | dose: 10.0 mg/kg/injection, schedule: Q01DX015 (ip), vehicle: alkali diluted with saline 96 % of control | dose: 12.0 mg/kg/injection, schedule: Q01DX015 (ip), vehicle: carboxymethylcellulose (CMC) 90 % of control and 95 % of control and 96 % of control | dose: 12.0 mg/kg/injection, schedule: Q01DX Z (ip), vehicle: carboxymethylcellulose (CMC) 110 % of control | dose: 12.5 mg/kg/injection, schedule: Q01DX Z (ip), vehicle: carboxymethylcellulose (CMC) 95 % of control | dose: 14.0 mg/kg/injection, schedule: Q01DX Z (ip), vehicle: carboxymethylcellulose (CMC) 96 % of control and 98 % of control and 104 % of control | dose: 16.0 mg/kg/injection, schedule: Q01DX015 (ip), vehicle: carboxymethylcellulose (CMC) 95 % of control | dose: 18.0 mg/kg/injection, schedule: Q01DX015 (ip), vehicle: carboxymethylcellulose (CMC) 93 % of control and 100 % of control | dose: 19.0 mg/kg/injection, schedule: Q01DX Z (ip), vehicle: carboxymethylcellulose (CMC) 123 % of control | dose: 20.0 mg/kg/injection, schedule: Q01DX015 (ip), vehicle: alkali diluted with saline 103 % of control | dose: 20.0 mg/kg/injection, schedule: Q01DX015 (ip), vehicle: carboxymethylcellulose (CMC) 96 % of control | [1] 101 % of control | dose: 24.0 mg/kg/injection, schedule: Q01DX015 (ip), vehicle: carboxymethylcellulose (CMC) 93 % of control | [2] 88 % of control | dose: 26.0 mg/kg/injection, schedule: Q01DX001 (ip), vehicle: alkali diluted with saline 97 % of control and 101 % of control | dose: 27.0 mg/kg/injection, schedule: Q01DX015 (ip), vehicle: carboxymethylcellulose (CMC) 96 % of control and 100 % of control | dose: 40.0 mg/kg/injection, schedule: Q01DX001 (ip), vehicle: alkali diluted with saline 96 % of control and 98 % of control (2×) | dose: 40.0 mg/kg/injection, schedule: Q01DX001 (ip), vehicle: carboxymethylcellulose (CMC) 102 % of control and 109 % of control | dose: 40.0 mg/kg/injection, schedule: Q01DX015 (ip), vehicle: alkali diluted with saline 103 % of control | dose: 40.0 mg/kg/injection, schedule: Q01DX015 (ip), vehicle: carboxymethylcellulose (CMC) 92 % of control and 95 % of control | dose: 42.0 mg/kg/injection, schedule: Q01DX Z (ip), vehicle: carboxymethylcellulose (CMC) 103 % of control | dose: 50.0 mg/kg/injection, schedule: Q01DX Z (ip), vehicle: carboxymethylcellulose (CMC) 91 % of control | dose: 56.0 mg/kg/injection, schedule: Q01DX Z (ip), vehicle: carboxymethylcellulose (CMC) 93 % of control and 97 % of control | dose: 59.0 mg/kg/injection, schedule: Q01DX001 (ip), vehicle: carboxymethylcellulose (CMC) 100 % of control | dose: 60.0 mg/kg/injection, schedule: Q01DX001 (ip), vehicle: alkali diluted with saline 96 % of control (2×) and 106 % of control | dose: 60.0 mg/kg/injection, schedule: Q01DX001 (ip), vehicle: carboxymethylcellulose (CMC) 108 % of control | dose: 60.0 mg/kg/injection, schedule: Q01DX010 (ip), vehicle: alkali diluted with saline 94 % of control | dose: 90.0 mg/kg/injection, schedule: Q01DX001 (ip), vehicle: alkali diluted with saline 87 % of control and 97 % of control and 103 % of control | dose: 90.0 mg/kg/injection, schedule: Q01DX001 (ip), vehicle: carboxymethylcellulose (CMC) 99 % of control and 102 % of control | [3] 91 % of control | dose: 135.0 mg/kg/injection, schedule: Q01DX001 (ip), vehicle: alkali diluted with saline 96 % of control and 103 % of control and 105 % of control | dose: 150.0 mg/kg/injection, schedule: Q01DX001 (ip), vehicle: carboxymethylcellulose (CMC) 96 % of control | dose: 202.0 mg/kg/injection, schedule: Q01DX001 (ip), vehicle: alkali diluted with saline 99 % of control and 100 % of control and 102 % of control | dose: 203.0 mg/kg/injection, schedule: Q01DX001 (ip), vehicle: carboxymethylcellulose (CMC) 95 % of control

CS(=O)(=O)OCCCl
inactive: dose: 75.0 mg/kg/injection, schedule: Q01DX Z (ip), vehicle: saline 115 % of control | dose: 100.0 mg/kg/injection, schedule: Q01DX Z (ip), vehicle: saline 108 % of control | dose: 150.0 mg/kg/injection, schedule: Q01DX Z (ip), vehicle: saline 116 % of control

C1CN1c1nc(N2CC2)nc(N2CC2)n1
inactive: [4] 118 % of control | [5] 109 % of control

O=c1[nH]c(=O)n(C2CC(O)C(CO)O2)cc1I (stereo not given)
inactive: [1] 108 % of control | [2] 121 % of control | dose: 30.0 mg/kg/injection, schedule: Q01DX Z (ip), vehicle: carboxymethylcellulose (CMC) 95 % of control | dose: 40.0 mg/kg/injection, schedule: Q01DX Z (ip), vehicle: carboxymethylcellulose (CMC) 87 % of control | dose: 60.0 mg/kg/injection, schedule: Q01DX Z (ip), vehicle: carboxymethylcellulose (CMC) 108 % of control | dose: 125.0 mg/kg/injection, schedule: Q01DX Z (ip), vehicle: carboxymethylcellulose (CMC) 115 % of control | dose: 250.0 mg/kg/injection, schedule: Q01DX Z (ip), vehicle: carboxymethylcellulose (CMC) 100 % of control | dose: 375.0 mg/kg/injection, schedule: Q01DX Z (ip), vehicle: carboxymethylcellulose (CMC) 93 % of control
active: dose: 75.0 mg/kg/injection, schedule: Q01DX Z (ip), vehicle: carboxymethylcellulose (CMC) 182 % of control | [3] 154 % of control

O=CN(O)CC(=O)O
inactive: dose: 62.0 mg/kg/injection, schedule: Q01DX Z (ip), vehicle: saline 100 % of control | dose: 125.0 mg/kg/injection, schedule: Q01DX Z (ip), vehicle: saline 112 % of control | dose: 250.0 mg/kg/injection, schedule: Q01DX Z (ip), vehicle: saline 107 % of control | dose: 500.0 mg/kg/injection, schedule: Q01DX Z (ip), vehicle: saline 105 % of control

O[C@H](CN1CC1)[C@@H](O)CN1CC1
inactive: [5] 91 % of control | dose: 180.0 micrograms/kg/injection, schedule: Q01DX Z (ip), vehicle: saline 121 % of control | dose: 370.0 micrograms/kg/injection, schedule: Q01DX Z (ip), vehicle: saline 120 % of control
active: [4] 253 % of control | dose: 90.0 micrograms/kg/injection, schedule: Q01DX Z (ip), vehicle: saline 156 % of control

CC(C)Cn1cnc2c(Sc3c([N+](=O)[O-])ncn3C)nc(N)nc21
inactive: dose: 1.0 mg/kg/injection, schedule: Q01DX015 (ip), vehicle: other 94 % of control | dose: 2.0 mg/kg/injection, schedule: Q01DX015 (ip), vehicle: other 92 % of control | dose: 8.0 mg/kg/injection, schedule: Q01DX015 (ip), vehicle: other 95 % of control | dose: 12.5 mg/kg/injection, schedule: Q01DX015 (ip), vehicle: other 100 % of control | dose: 25.0 mg/kg/injection, schedule: Q01DX015 (ip), vehicle: other 97 % of control | dose: 50.0 mg/kg/injection, schedule: Q01DX015 (ip), vehicle: other 90 % of control

O=c1[nH]cnc2c1nnn2C1OC(CO)C(O)C1O (stereo not given)
active: dose: 114.0 mg/kg/injection, schedule: Q01DX009 (ip), vehicle: saline 156 % of control and 171 % of control
inactive: dose: 50.0 mg/kg/injection, schedule: Q01DX009 (ip), vehicle: saline 111 % of control | dose: 76.0 mg/kg/injection, schedule: Q01DX009 (ip), vehicle: saline 118 % of control | dose: 256.0 mg/kg/injection, schedule: Q01DX009 (ip), vehicle: saline 112 % of control

N=C(N)c1ccc(Nc2ccc(C(=N)N)cc2)cc1
inactive: dose: 2.0 mg/kg/injection, schedule: Q01DX Z (ip), vehicle: water 112 % of control | dose: 4.0 mg/kg/injection, schedule: Q01DX Z (ip), vehicle: water 102 % of control | dose: 6.0 mg/kg/injection, schedule: Q01DX Z (ip), vehicle: water 104 % of control | dose: 8.0 mg/kg/injection, schedule: Q01DX Z (ip), vehicle: water 106 % of control | dose: 9.37 mg/kg/injection, schedule: Q01DX Z (ip), vehicle: water 104 % of control | dose: 18.75 mg/kg/injection, schedule: Q01DX Z (ip), vehicle: water 100 % of control

NS(=O)(=O)c1ncnc2nc[nH]c12
inactive: dose: 6.0 mg/kg/injection, schedule: Q01DX Z (ip), vehicle: carboxymethylcellulose (CMC) 122 % of control | dose: 25.0 mg/kg/injection, schedule: Q01DX Z (ip), vehicle: saline 112 % of control | dose: 50.0 mg/kg/injection, schedule: Q01DX Z (ip), vehicle: saline 96 % of control
